Active and inactive are the calls of the source. No rule for the calls is given here.
target: Serine/threonine-protein kinase mTOR (Homo sapiens) (UniProt P42345); assay: mTOR FRB domain ligand binding – biophysical, NMR (AID 1648); settings: NMR binding to FRB domain, chemical shift
Sequence (P42345 2015-2114): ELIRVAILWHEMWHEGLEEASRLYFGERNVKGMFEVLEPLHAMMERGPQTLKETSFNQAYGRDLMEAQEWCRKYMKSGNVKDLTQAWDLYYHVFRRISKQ

| Structure (SMILES) | Kd |
| --- | --- |
| Cc1nn(CC(=O)Nc2ccccn2)c(=O)c2ccccc12 | > 4 mM (inactive) |
| CC1=C(/C=C/C(C)=C/C=C/C(C)=C/CO)C(C)(C)CCC1 | > 4 mM (inactive) |
| O=S1(=O)CCC(NC(=S)N2CCCCC2)C1 (centres undefined) | > 4 mM (inactive) |
| O=C(O)c1snnc1-c1ccccc1 | > 4 mM (inactive) |
| OCc1ccc2c(c1)OCCO2 | > 4 mM (inactive) |
| CC(=O)O[C@H]1C[C@@H](OC(C)=O)C(C)(C)C2C[C@@H](O)[C@]3(C)C(CC[C@@]4(C)[C@H](c5ccoc5)OC(=O)[C@H]5O[C@]543)[C@]21C (some centres undefined) | > 4 mM (inactive) |
| O=C(O)CN(CCCc1ccccc1)CC(=O)O | > 4 mM (inactive) |
| Cc1ccc(C(C)C)cc2c(C)ccc1-2 | > 4 mM (inactive) |
| CC(=O)Nc1cccc(N2CCCC2=O)c1 | > 4 mM (inactive) |
| CN(c1ccc(C(=O)N2CCCCC2)cc1)S(C)(=O)=O | > 4 mM (inactive) |
| CC(C)(C(N)=O)/[N+]([O-])=C\c1ccccc1 | > 4 mM (inactive) |
| Cc1sc(N)c(C(N)=O)c1C | > 4 mM (inactive) |
| NC(=O)CN1CCC(c2nc3ccccc3[nH]2)CC1 | > 4 mM (inactive) |
| O=C(O)CNCC(O)Cn1c2ccccc2c2ccccc21 (centres undefined) | > 4 mM (inactive) |
| Cc1cc(=O)c2c(O)c(C)c(O)cc2o1 | > 4 mM (inactive) |
| COC(=O)[C@@]1(C)CCC[C@]2(C)c3ccc(O)c(C(C)C)c3CCC12 (some centres undefined) | > 4 mM (inactive) |
| Nc1cccc(-n2cnnn2)c1 | > 4 mM (inactive) |
| C=CCN1CC[C@]23c4c5ccc(O)c4OC2C(=O)CC[C@@]3(O)[C@H]1C5 (some centres undefined) | > 4 mM (inactive) |
| Cc1cc(N2C(=O)CCC2=O)n(-c2ccccc2)n1 | > 4 mM (inactive) |
| FC(F)(F)c1nnc2ccc(N3CCOCC3)nn12 | > 4 mM (inactive) |
| CC1=C2[C@H]3OC(=O)[C@@H](C)[C@@H]3CC[C@@]2(C)C=CC1=O | > 4 mM (inactive) |

| Structure (SMILES) | Kd |
| --- | --- |
| S=C(Cc1cccnc1)N1CCOCC1 | > 4 mM (inactive) |
| Cc1ccc(C2NS(=O)(=O)N=C2N)cc1 (centres undefined) | > 4 mM (inactive) |
| CN1CN(Cc2ccccc2)CN/C1=N/[N+](=O)[O-] | > 4 mM (inactive) |
| N[C@@H](CCC(=O)N[C@@H](CS)C(=O)NCC(=O)O)C(=O)O | > 4 mM (inactive) |
| CC(=O)Nc1nnc(-c2ccccc2)o1 | > 4 mM (inactive) |
| CC(=O)NCC1OCCc2ccccc21 (centres undefined) | > 4 mM (inactive) |
| Cn1c(=O)[nH]c2nc[nH]c2c1=O | > 4 mM (inactive) |
| O=C1NC(=S)NC(=O)C1=Cc1ccncc1 | > 4 mM (inactive) |
| N#Cc1cnn(-c2ccc(Cl)cc2)c1N | > 4 mM (inactive) |
| O=c1ccc2ccc(O)cc2o1 | > 4 mM (inactive) |
| O=C(Nc1ccncc1)c1cncc(Br)c1 | > 4 mM (inactive) |
| CCOC12NC(=O)CC(=O)N1C(c1ccccc1)=CS2 (centres undefined) | > 4 mM (inactive) |
| O=C1NC(=S)N/C1=C/c1ccsc1 | > 4 mM (inactive) |
| O=C(c1ccco1)N1CCN(c2ccc(Cl)cc2)CC1 | > 4 mM (inactive) |
| O=C(N1CCOCC1)N1CCN(c2ccccn2)CC1 | > 4 mM (inactive) |
| CC(=O)O[C@@H]1CC2C(C)(CC[C@H](O)C2(C)C)C2CC[C@]3(C)C(=CC(=O)O[C@H]3c3ccoc3)C21C (some centres undefined) | > 4 mM (inactive) |
| COc1cc(N)ccc1NC(=O)c1cccs1 | > 4 mM (inactive) |
| O=C(CC1SC(=O)NC1=O)Nc1nccs1 (centres undefined) | > 4 mM (inactive) |
| Cc1cc(=O)n2ccc(CN3CCOCC3)c(O)c2n1 | > 4 mM (inactive) |
| Oc1ccc(/C=C/c2cc(O)cc(O)c2)cc1 | > 4 mM (inactive) |
| Brc1ccc(-c2nc(-c3ccncc3)no2)o1 | > 4 mM (inactive) |

| Structure (SMILES) | Kd |
| --- | --- |
| CP(C)(=O)c1cccc(C(=O)O)c1 | > 4 mM (inactive) |
| O=C1CCCc2c(O)cccc21 | > 4 mM (inactive) |
| OCc1ccc(-c2cccs2)s1 | > 4 mM (inactive) |
| Cc1ccc(C)n1CCN1CCNCC1 | > 4 mM (inactive) |
| O=C1NC(=Nc2ccccc2)S/C1=C/c1cccnc1 | > 4 mM (inactive) |
| CC(=O)OCC[C@H](C)CCC=C(C)C | > 4 mM (inactive) |
| O=C1CNC(=O)N1Cc1ccc(Br)cc1 | > 4 mM (inactive) |
| CC(=O)Nc1ccc(C(=O)NC2CCSC2=O)cc1 (centres undefined) | > 4 mM (inactive) |
| CC(=O)O[C@@H]1CC2C(C)(C)[C@H](O)C=C[C@]2(C)C2CC[C@@]3(C)[C@H](c4ccoc4)OC(=O)C4OC43[C@@]21C (some centres undefined) | > 4 mM (inactive) |
| Nc1cccc(S(=O)(=O)N2CCCC2)c1 | > 4 mM (inactive) |
| Cc1ccc2cccc(OC(=O)N3CCCC3)c2n1 | > 4 mM (inactive) |
| COC(=O)C1=C(C)N(Cc2ccco2)C(=O)C1 | > 4 mM (inactive) |
| COC(=O)C[C@@H]1C2(C)C(=O)[C@@H](CC3=C4CC(=O)O[C@@H](c5ccoc5)[C@]4(C)CCC32)[C@H](OC(C)=O)C1(C)C (some centres undefined) | > 4 mM (inactive) |
| CC[C@]12CCCN3CCc4c(n(c5ccccc45)[C@](O)(C(=O)OC)C1)[C@@H]32 | > 4 mM (inactive) |
| NS(=O)(=O)c1ccc(NC(=O)C(F)(F)F)cc1 | > 4 mM (inactive) |
| Cn1cccc1C(=S)N1CCOCC1 | > 4 mM (inactive) |
| CN(C)c1nc(N2CCOCC2)c2cnn(C)c2n1 | > 4 mM (inactive) |
| O=C(O)C1CC(=O)N(Cc2ccco2)C1 (centres undefined) | > 4 mM (inactive) |
| CC(C(N)=O)N1C(=O)c2ccccc2C1=O (centres undefined) | > 4 mM (inactive) |
| O=C(NC1CCS(=O)(=O)C1)c1ccccc1 (centres undefined) | > 4 mM (inactive) |
| NC1C2CC3CC1CC(O)(C3)C2 (centres undefined) | > 4 mM (inactive) |

| Structure (SMILES) | Kd |
| --- | --- |
| Nc1cc(=O)[nH]c(=S)n1-c1ccc(F)cc1 | > 4 mM (inactive) |
| CC(C)=CC1C(C(=O)O)C1(C)C (centres undefined) | > 4 mM (inactive) |
| Cc1ccc(C)n1-c1ccc(C(=O)N2CCOCC2)cc1 | > 4 mM (inactive) |
| Cc1c(C(=O)Nc2ccccn2)oc2ccccc12 | > 4 mM (inactive) |
| COc1ccccc1NC(=O)NC(N)=O | > 4 mM (inactive) |
| CN1C(=O)C2C=CC1C1C(=O)N(c3ccccc3)C(=O)C21 (centres undefined) | > 4 mM (inactive) |
| CCCn1c(S(=O)(=O)O)nc2ccccc21 | > 4 mM (inactive) |
| C=CCc1ccc(OC(=O)c2ccccc2)c(OC)c1 | > 4 mM (inactive) |
| Cc1sc2nc(-c3ccco3)oc(=O)c2c1C | > 4 mM (inactive) |
| CCOc1ccc(C)cc1S(=O)(=O)n1ccnc1 | > 4 mM (inactive) |
| COCC(=O)Nc1cc2c3c(c1)CCN3C(=O)CC2 | > 4 mM (inactive) |
| COc1cc(-c2csc(C)n2)ccc1O | > 4 mM (inactive) |
| C=C[C@@]1(C)CC(=O)[C@@]2(O)[C@](C)(O1)[C@@H](OC(C)=O)[C@@H](O)C1C(C)(C)CC[C@H](O)[C@@]12C (some centres undefined) | > 4 mM (inactive) |
| Cc1cc(C)nc(/N=C(\N)N2CCc3ccccc32)n1 | > 4 mM (inactive) |
| CCC[C@@H]1CCCCN1 | > 4 mM (inactive) |
| NC1=C([N+](=O)[O-])C(=O)c2ccccc21 | > 4 mM (inactive) |
| Fc1ccc2onc(C3CCNCC3)c2c1 | > 4 mM (inactive) |
| O=C1CSC(=O)N1CN1CCOCC1 | > 4 mM (inactive) |
| CSc1nnc(CN2CCSCC2)n1C | > 4 mM (inactive) |
| CC(=O)Nc1nnc(-c2ccco2)o1 | > 4 mM (inactive) |
| CCOC(=O)C1CCN(c2ncnc3nc[nH]c23)CC1 | > 4 mM (inactive) |

Reference: PubChem BioAssay AID1648 (Sanford-Burnham Center for Chemical Genomics, 2009)
